Patent publication US8426408B2, “Pyrimidine inhibitors of kinases” (AbbVie Inc., priority 2009, dated 2013)
pIC50, pKi: −log10 of the molar value.

Key:
Aurora A = biological target: T1, Aurora A (Homo sapiens, UniProt O14965); experiment: Aurora A enzyme inhibition (time-resolved fluorescence, STK substrate-2); type: biochemical; details: 1 mM ATP
T1 sequence (O14965 1-403): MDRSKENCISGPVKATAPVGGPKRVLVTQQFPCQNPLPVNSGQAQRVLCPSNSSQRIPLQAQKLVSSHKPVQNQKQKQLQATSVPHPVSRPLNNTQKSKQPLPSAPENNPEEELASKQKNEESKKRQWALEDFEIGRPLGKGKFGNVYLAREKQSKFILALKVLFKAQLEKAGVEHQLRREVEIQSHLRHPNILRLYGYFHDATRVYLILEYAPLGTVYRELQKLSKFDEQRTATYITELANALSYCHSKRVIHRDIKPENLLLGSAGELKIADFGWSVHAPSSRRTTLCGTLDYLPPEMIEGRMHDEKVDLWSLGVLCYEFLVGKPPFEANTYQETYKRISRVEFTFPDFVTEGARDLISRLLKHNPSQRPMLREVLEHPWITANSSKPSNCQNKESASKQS
How it was run: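 Phosphorylation of biotinylated STK substrate-2 at 1 mM ATP, 1 h, Hepes buffer pH 7.4 (MgCl2, sodium orthovanadate, Triton X-100). After EDTA quench, 665/615 nm time-resolved fluorescence ratio read via europium anti-phospho antibody and SA-XL665; IC50 from exponential fit versus inhibitor concentration.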

KDR = KDR (Homo sapiens, UniProt P35968); experiment: KDR cellular assay (KDR receptor phosphorylation ELISA); type: cell-based; set-up: expressed in transfected cells; host or cells: 3T3 (embryonic mouse) cells; details: KDR transfected 3T3 (embryonic mouse) cells, VEGF stimulated; read-out: IC50 inhibition of KDR phosphorylation
Chain of KDR (P35968 20-1356): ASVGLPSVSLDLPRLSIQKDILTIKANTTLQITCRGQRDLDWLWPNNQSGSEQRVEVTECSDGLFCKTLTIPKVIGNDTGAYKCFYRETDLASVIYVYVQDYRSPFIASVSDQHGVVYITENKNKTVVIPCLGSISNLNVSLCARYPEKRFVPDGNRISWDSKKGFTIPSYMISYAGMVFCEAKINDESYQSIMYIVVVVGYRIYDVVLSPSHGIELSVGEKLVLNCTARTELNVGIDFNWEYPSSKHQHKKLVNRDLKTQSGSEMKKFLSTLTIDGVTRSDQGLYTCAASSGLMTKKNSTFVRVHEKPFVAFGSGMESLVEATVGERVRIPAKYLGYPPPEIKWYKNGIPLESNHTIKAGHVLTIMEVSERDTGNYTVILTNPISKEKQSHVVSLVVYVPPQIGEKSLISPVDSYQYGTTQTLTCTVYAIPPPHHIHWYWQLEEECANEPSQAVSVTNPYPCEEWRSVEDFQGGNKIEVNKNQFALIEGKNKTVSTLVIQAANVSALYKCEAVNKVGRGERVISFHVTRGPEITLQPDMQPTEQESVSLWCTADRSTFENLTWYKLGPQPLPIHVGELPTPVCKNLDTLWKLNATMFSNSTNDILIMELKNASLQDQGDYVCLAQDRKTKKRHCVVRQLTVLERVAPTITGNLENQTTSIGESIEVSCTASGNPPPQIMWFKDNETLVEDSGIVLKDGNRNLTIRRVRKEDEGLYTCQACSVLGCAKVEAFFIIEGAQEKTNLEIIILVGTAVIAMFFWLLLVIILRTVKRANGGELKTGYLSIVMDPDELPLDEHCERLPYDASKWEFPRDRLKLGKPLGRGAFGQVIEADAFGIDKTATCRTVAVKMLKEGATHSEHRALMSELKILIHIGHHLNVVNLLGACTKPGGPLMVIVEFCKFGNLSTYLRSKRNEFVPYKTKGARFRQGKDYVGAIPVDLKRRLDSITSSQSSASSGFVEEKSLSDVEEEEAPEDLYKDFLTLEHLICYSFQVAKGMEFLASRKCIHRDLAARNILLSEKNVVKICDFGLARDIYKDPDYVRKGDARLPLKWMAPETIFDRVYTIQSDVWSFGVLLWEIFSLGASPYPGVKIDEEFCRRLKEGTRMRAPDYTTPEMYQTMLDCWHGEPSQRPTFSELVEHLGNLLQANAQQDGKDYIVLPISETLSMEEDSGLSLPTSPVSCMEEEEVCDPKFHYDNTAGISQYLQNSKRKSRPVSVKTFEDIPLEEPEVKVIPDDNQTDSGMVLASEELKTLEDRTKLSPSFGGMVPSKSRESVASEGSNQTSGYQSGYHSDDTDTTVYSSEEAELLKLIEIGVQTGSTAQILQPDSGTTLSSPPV
How it was run: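 Phospho-KDR measured by capture ELISA (anti-KDR coat, biotinylated detection, streptavidin-HRP, 450 nm) in lysates of KDR-expressing 3T3 mouse fibroblasts. Cells saw compound 20 min at 37° C before 10 min VEGF challenge (100 ng/ml solution); IC50 from non-linear regression of half-log dose series.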

NCI-H1299 cells = experiment: Induction of polyploidy in H1299; type: cell-based, Human; details: Homo sapiens; NCI-H1299, 48 hours; read-out: EC15 (concentration of inhibitor necessary to induce polyploidy in 15% of cells)
How it was run: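 Potency is given as EC15, the inhibitor concentration giving 15% polyploid cells, from log dose-response least-squares analysis. Polyploid cells (nuclear area >750 μ^2, ≥4N) were counted by Hoechst high-content microscopy. H1299 cells had been exposed for 48 h at 37 C in duplicate, then fixed in 3% formalin.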

Compound | pKi (Aurora A) | pIC50 (KDR) | EC15 (NCI-H1299 cells) [nM]
CCn1cc(Nc2ncc([N+](=O)[O-])c(N[C@H]3[C@@H](C(N)=O)[C@@H]4C=C[C@H]3C4)n2)cn1 [Example 140, (1S,2S,3R,4R)-3-({2-[(1-ethyl-1H-pyrazol-4-yl)amino]-5-nitropyrimidin-4-yl}amino)bicyclo[2.2.1]hept-5-ene-2-carboxamide] | > 7.00 | 6.00 to 7.00 | < 100
NC(=O)[C@@H]1[C@H](Nc2nc(Nc3cnn(CCc4ccccc4)c3)ncc2Cl)[C@H]2C=C[C@@H]1C2 [Example 143, (1S,2S,3R,4R)-3-[(5-chloro-2-{[1-(2-phenylethyl)-1H-pyrazol-4-yl]amino}pyrimidin-4-yl)amino]bicyclo[2.2.1]hept-5-ene-2-carboxamide] | > 7.00 | > 7.00 | < 100
NC(=O)[C@@H]1[C@H](Nc2nc(Nc3cnn(Cc4ccccc4)c3)ncc2Cl)[C@H]2C=C[C@@H]1C2 [Example 144, (1S,2S,3R,4R)-3-({2-[(1-benzyl-1H-pyrazol-4-yl)amino]-5-chloropyrimidin-4-yl}amino)bicyclo[2.2.1]hept-5-ene-2-carboxamide] | > 7.00 | > 7.00 | < 100
NC(=O)[C@@H]1[C@H](Nc2nc(Nc3cnn(CCc4ccccc4)c3)ncc2Br)[C@H]2C=C[C@@H]1C2 [Example 148, (1S,2S,3R,4R)-3-[(5-bromo-2-{[1-(2-phenylethyl)-1H-pyrazol-4-yl]amino}pyrimidin-4-yl)amino]bicyclo[2.2.1]hept-5-ene-2-carboxamide] | > 7.00 | > 7.00 | < 100
NC(=O)[C@@H]1[C@H](Nc2nc(Nc3cnn(Cc4ccccc4)c3)ncc2Br)[C@H]2C=C[C@@H]1C2 [Example 149, (1S,2S,3R,4R)-3-({2-[(1-benzyl-1H-pyrazol-4-yl)amino]-5-bromopyrimidin-4-yl}amino)bicyclo[2.2.1]hept-5-ene-2-carboxamide] | > 7.00 | > 7.00 | < 100
Cn1cc(Nc2ncc(C(F)(F)F)c(Nc3ccsc3C(N)=O)n2)cn1 [Example 150, 3-({2-[(1-methyl-1H-pyrazol-4-yl)amino]-5-(trifluoromethyl)pyrimidin-4-yl}amino)thiophene-2-carboxamide] | > 7.00 | 6.00 to 7.00 | < 100
COc1cccc(CCn2cc(Nc3ncc(Cl)c(N[C@H]4[C@@H](C(N)=O)[C@@H]5C=C[C@H]4C5)n3)cn2)c1 [Example 154, (1S,2S,3R,4R)-3-{[5-chloro-2-({1-[2-(3-methoxyphenyl)ethyl]-1H-pyrazol-4-yl}amino)pyrimidin-4-yl]amino}bicyclo[2.2.1]hept-5-ene-2-carboxamide] | > 7.00 | 6.00 to 7.00 | < 100
COc1cccc(Cn2cc(Nc3ncc(Cl)c(N[C@H]4[C@@H](C(N)=O)[C@@H]5C=C[C@H]4C5)n3)cn2)c1 [Example 155, (1S,2S,3R,4R)-3-[(5-chloro-2-{[1-(3-methoxybenzyl)-1H-pyrazol-4-yl]amino}pyrimidin-4-yl)amino]bicyclo[2.2.1]hept-5-ene-2-carboxamide] | > 7.00 | > 7.00 | < 100
NC(=O)[C@@H]1[C@H](Nc2nc(Nc3cnn(Cc4cccc(Cl)c4)c3)ncc2Cl)[C@H]2C=C[C@@H]1C2 [Example 157, (1S,2S,3R,4R)-3-[(5-chloro-2-{[1-(3-chlorobenzyl)-1H-pyrazol-4-yl]amino}pyrimidin-4-yl)amino]bicyclo[2.2.1]hept-5-ene-2-carboxamide] | > 7.00 | > 7.00 | < 100
NC(=O)[C@@H]1[C@H](Nc2nc(Nc3cnn(CCc4cccc(Cl)c4)c3)ncc2Cl)[C@H]2C=C[C@@H]1C2 [Example 158, (1S,2S,3R,4R)-3-{[5-chloro-2-({1-[2-(3-chlorophenyl)ethyl]-1H-pyrazol-4-yl}amino)pyrimidin-4-yl]amino}bicyclo[2.2.1]hept-5-ene-2-carboxamide] | > 7.00 | 6.00 to 7.00 | < 100
COc1cccc(Cn2cc(Nc3ncc(Br)c(N[C@H]4[C@@H](C(N)=O)[C@@H]5C=C[C@H]4C5)n3)cn2)c1 [Example 159, (1S,2S,3R,4R)-3-[(5-bromo-2-{[1-(3-methoxybenzyl)-1H-pyrazol-4-yl]amino}pyrimidin-4-yl)amino]bicyclo[2.2.1]hept-5-ene-2-carboxamide] | > 7.00 | > 7.00 | < 100
COc1cccc(CCn2cc(Nc3ncc(Br)c(N[C@H]4[C@@H](C(N)=O)[C@@H]5C=C[C@H]4C5)n3)cn2)c1 [Example 160, (1S,2S,3R,4R)-3-{[5-bromo-2-({1-[2-(3-methoxyphenyl)ethyl]-1H-pyrazol-4-yl}amino)pyrimidin-4-yl]amino}bicyclo[2.2.1]hept-5-ene-2-carboxamide] | > 7.00 | > 7.00 | < 100
NC(=O)[C@@H]1[C@H](Nc2nc(Nc3cnn(Cc4ccccc4Cl)c3)ncc2Cl)[C@H]2C=C[C@@H]1C2 [Example 161, (1S,2S,3R,4R)-3-[(5-chloro-2-{[1-(2-chlorobenzyl)-1H-pyrazol-4-yl]amino}pyrimidin-4-yl)amino]bicyclo[2.2.1]hept-5-ene-2-carboxamide] | > 7.00 | > 7.00 | < 100

Further lines, with some results ahead:

pKi (Aurora A) | pIC50 (KDR) | Compound | EC15 (NCI-H1299 cells) [nM]
> 7.00 | 6.00 to 7.00 | NC(=O)[C@@H]1[C@H](Nc2nc(Nc3cnn(C[C@H](O)CO)c3)ncc2Cl)[C@H]2C=C[C@@H]1C2 [Example 124, (1S,2S,3R,4R)-3-{[5-chloro-2-({1-[(2S)-2,3-dihydroxypropyl]-1H-pyrazol-4-yl}amino)pyrimidin-4-yl]amino}bicyclo[2.2.1]hept-5-ene-2-carboxamide] | < 100
> 7.00 | > 7.00 | NC(=O)[C@@H]1[C@H](Nc2nc(Nc3cnn(CC4CCO4)c3)ncc2Cl)[C@H]2C=C[C@@H]1C2 (stereo partly drawn) [Example 129, (1S,2S,3R,4R)-3-[(5-chloro-2-{[1-(oxetan-2-ylmethyl)-1H-pyrazol-4-yl]amino}pyrimidin-4-yl)amino]bicyclo[2.2.1]hept-5-ene-2-carboxamide] | < 100
> 7.00 | 6.00 to 7.00 | NC(=O)[C@@H]1[C@H](Nc2nc(Nc3cnn(C[C@@H](O)CO)c3)ncc2Cl)[C@H]2C=C[C@@H]1C2 [Example 130, (1S,2S,3R,4R)-3-{[5-chloro-2-({1-[(2R)-2,3-dihydroxypropyl]-1H-pyrazol-4-yl}amino)pyrimidin-4-yl]amino}bicyclo[2.2.1]hept-5-ene-2-carboxamide] | < 100
> 7.00 | 6.00 to 7.00 | NC(=O)[C@@H]1[C@H](Nc2nc(Nc3cnn(C[C@H](O)CO)c3)ncc2Br)[C@H]2C=C[C@@H]1C2 [Example 131, (1S,2S,3R,4R)-3-{[5-bromo-2-({1-[(2S)-2,3-dihydroxypropyl]-1H-pyrazol-4-yl}amino)pyrimidin-4-yl]amino}bicyclo[2.2.1]hept-5-ene-2-carboxamide] | < 100
> 7.00 | 6.00 to 7.00 | Cn1cc(Nc2ncc(Br)c(Nc3ccccc3C3(O)CCC3)n2)cn1 [Example 132, 1-[2-({5-bromo-2-[(1-methyl-1H-pyrazol-4-yl)amino]pyrimidin-4-yl}amino)phenyl]cyclobutanol] | 100 to 1000
> 7.00 | 6.00 to 7.00 | Cc1nn(C)cc1Nc1ncc(Cl)c(N[C@H]2[C@@H](C(N)=O)[C@@H]3C=C[C@H]2C3)n1 [Example 134, (1S,2S,3R,4R)-3-({5-chloro-2-[(1,3-dimethyl-1H-pyrazol-4-yl)amino]pyrimidin-4-yl}amino)bicyclo[2.2.1]hept-5-ene-2-carboxamide] | < 100
> 7.00 | > 7.00 | Cc1nn(C)cc1Nc1ncc(Br)c(N[C@H]2[C@@H](C(N)=O)[C@@H]3C=C[C@H]2C3)n1 [Example 135, (1S,2S,3R,4R)-3-({5-bromo-2-[(1,3-dimethyl-1H-pyrazol-4-yl)amino]pyrimidin-4-yl}amino)bicyclo[2.2.1]hept-5-ene-2-carboxamide] | < 100
> 7.00 | 6.00 to 7.00 | Cn1cc(Nc2ncc([N+](=O)[O-])c(N[C@H]3[C@@H](C(N)=O)[C@@H]4C=C[C@H]3C4)n2)cn1 [Example 139, (1S,2S,3R,4R)-3-({2-[(1-methyl-1H-pyrazol-4-yl)amino]-5-nitropyrimidin-4-yl}amino)bicyclo[2.2.1]hept-5-ene-2-carboxamide] | < 100
